What follows are molecules tested on Aphis fabae (assay: Aphis fabae (blackbean aphid), contact action). Details: infested dwarf beans (Vicia faba), mortality after 24 hours, read-out: limit concentration (lowest concentration still causing 80-100% inhibition or mortality).
Assay type: in vivo
Description: (§1) The active ingredients were formulated
(§2) a) as a 0.1% strength solution in acetone or
(§3) b) as a 10% emulsion in a mixture of 70% by weight of cyclohexanol, 20% by weight of Nekanil® LN (Lutensol® AP6, wetting agent having emulsifying and dispersant action based on ethoxylated alkylphenols) and 10% by weight of Emulphor® EL emulsifier based on ethoxylated fatty alcohols)
(§4) and diluted to give the desired concentraton, using acetone in the case of a) and water in the case of b).
(§5) After the experiments had been concluded, in each case the lowest concentration at which the compounds still caused an 80-100% inhibition or mortality in comparison with untreated controls was determined (limit or minimum concentration).
Severely infested dwarf beans (Vicia faba) were treated with the aqueous preparation of active ingredient. After 24 hours, the mortality rate was determined.

Which minimal effective concentration does the source give for `CCON=C(C)C(C)=NOc1ccccc1C(=NOC)C(=O)OC` [I(2).9] here?
Its minimal effective concentration is 200 µg/mL.

Each molecule was assayed on Heliothis virescens (assay: Heliothis virescens (tobacco budworm), contact/stomach action). Details: tobacco plants, 3rd instar larvae, mortality and antifeeding effect after 48 hours, read-out: limit concentration (lowest concentration still causing 80-100% inhibition or mortality).
Assay type: in vivo
Description: as §1, §2, §3, §4, §5
Tobacco plants approximately 10 cm high were treated with the aqueous preparation of active ingredient. After the plants had dried, they were populated with in each case 10 3rd instar larvae. Mortality and antifeeding effect were assessed after 48 hours.

For `C#CCON=C(C)C(C)=NOc1ccccc1C(=COC)C(=O)OC` [I(2).17], which minimal effective concentration is on record?
The minimal effective concentration was 40 µg/mL.

What follows are molecules tested on mitochondria of the yeast Saccharomyces cerevisiae (assay: Inhibition of mitochondrial respiration (photometric cytochrome c reduction rate in isolated mitochondria)). Details: Saccharom. cerevisiae mitochondria; relative to reference substance enol ether stilbene.
Assay type: biochemical
Description: To determine the effect of the compounds according to the invention on mitochondrial respiration, it is first necessary to isolate the mitochondria from the test organisms. In the case of the yeast Saccharomyces cerevisiae, a 30 to 40% cell suspension of the fungus is disrupted, to this end, in an aqueous solution of 0.6 M Mannitol+0.01 M tris[hydroxymethyl]aminomethane+0.002 M disodium ethylenediaminetetraacetate (pH 6.8) using a glass bead mill, and the extract is fractionated by means of differential centrifugation at 1000×g and 12000×g. The mitochondria are in the precipitate of the 12000×g centrifugation.
The effect of the compounds on the respiration chain is determined by adding a solution of the test compound in dimethyl sulfoxide to a suspension of mitochondria in an aqueous solution of 0.01 M tris[hydroxymethyl]aminomethane+0.65 M sorbitol+0.01 M KH2 PO4 +0.01 M KCl+0.0004 M disodium ethylenediamine-tetraacetate+0.3% bovine serum albumin+0.0007 M KCN+6×10^-6 ubiquinone-50+0.01 M sodium succinate+0.15% cytochrome c (pH 7.5), and the reduction rate of the cytochrome c is determined photometrically on the basis of the increased absorption at 546 nm. A batch with a corresponding amount of pure DMSO is used as control. The inhibitory value for the active ingredient at the concentration shown in each case is then calculated as follows. [formula] where ΔE is the difference in absorption, At the difference in time, [formula]
In the table which follows, the action of a series of compounds according to the invention as respiration inhibitors on the mitochondria of the yeast Saccharomyces cerevisiae, the phyto-pathogenic fungus Drechslera sorokiniana and the common housefly Musca domestics.
In each case, the inhibition of mytochondrial respiration is given as I50 value (this being the concentration of test substance where a 50% inhibition is observed) and as F value, this being a relative value defined as follows: [formula]
The reference substance is the so-called enol ether stilbene, of the following formula: [drawing 80]

For `CON=C(C(=O)OC)c1ccccc1ON=C(C)c1cccc(C)c1` [I(1).1, methyl methoxyimino-[2-(1-meta-tolylethylideneaminooxy)phenyl]acetate], which “F value (relative value)” value is on record?
Its value is 0.96.

How did the “F value (relative value)” value turn out when `CNC(=O)C(=NOC)c1ccccc1ON=C(C)c1cccc(C)c1` [I(1).2, 2-methoxyimino-N-methyl-2-[2-(1-meta-tolylethylideneamino-oxy)phenyl]acetamide] was run?
Its value is 11.

Which “F value (relative value)” value does the source give for `CON=C(C)C(C)=NOc1ccccc1C(=NOC)C(=O)OC` [I(2).2, methyl methoxyimino-[2-(2-methoxyimino-1-methylpropylideneaminooxy)phenyl]acetate] here?
The value was 0.43.

With `CNC(=O)C(=NOC)c1ccccc1ON=C(C)C(C)=NOC` [I(2).3, N-methyl-methoxyimino-[2-(2-methoxyimino-1-methylpropylideneaminooxy)phenyl]acetamide] as the molecule, how does the “F value (relative value)” value read?
Its value is 9.6.

These molecules were tested on Tetranychus telarius (assay: Tetranychus telarius (greenhouse red spider mite), contact action). Details: 120 h, infested dwarf beans in pots, assessed after 5 days in the greenhouse, read-out: limit concentration (lowest concentration still causing 80-100% inhibition or mortality).
Assay type: in vivo
Description: as §1, §2, §3, §4, §5
After 5 days in the greenhouse, the result of the control measures was determined by means of a stereomicroscope.

`CON=C(C)C(C)=NOc1ccccc1C(=NOC)C(=O)OC` [I(2).2, methyl methoxyimino-[2-(2-methoxyimino-1-methylpropylideneaminooxy)phenyl]acetate] was tested. Which minimal effective concentration did it give?
Its minimal effective concentration is no more than 200 µg/mL.

With `COC=C(C(=O)OC)c1ccccc1ON=C(C)C(C)=NOC(C)C` [I(2).6] as the molecule, how does the minimal effective concentration read?
Its minimal effective concentration is no more than 200 µg/mL.

Which minimal effective concentration does the source give for `COC=C(C(=O)OC)c1ccccc1ON=C(C)C(C)=NOC` [I(2).7, methyl 3-methoxy-[2-(2-methoxyimino-1-methyl-propylideneaminooxy)phenyl]acrylate] here?
Its minimal effective concentration is no more than 200 µg/mL.

How did the minimal effective concentration turn out when `CNC(=O)C(=NOC)c1ccccc1ON=C(C)C(C)=NOC(C)C` [I(2).8] was run?
Its minimal effective concentration is no more than 200 µg/mL.

How did the minimal effective concentration turn out when `CCON=C(C)C(C)=NOc1ccccc1C(=NOC)C(=O)OC` [I(2).9] was run?
The minimal effective concentration was no more than 200 µg/mL.

For `CON=C(C(=O)OC)c1ccccc1ON=C(C)C(C)=NOC(C)C` [I(2).13], which minimal effective concentration is on record?
The minimal effective concentration was no more than 200 µg/mL.

How did the minimal effective concentration turn out when `CCC(=NOc1ccccc1C(=COC)C(=O)OC)C(C)=NOC` [I(2).14] was run?
The minimal effective concentration was no more than 200 µg/mL.

How did the minimal effective concentration turn out when `CCON=C(C)C(C)=NOc1ccccc1C(=COC)C(=O)OC` [I(2).15] was run?
Its minimal effective concentration is no more than 200 µg/mL.

How did the minimal effective concentration turn out when `C#CCON=C(C)C(C)=NOc1ccccc1C(=NOC)C(=O)OC` [I(2).16] was run?
Its minimal effective concentration is no more than 200 µg/mL.

How did the minimal effective concentration turn out when `C#CCON=C(C)C(C)=NOc1ccccc1C(=COC)C(=O)OC` [I(2).17] was run?
Its minimal effective concentration is no more than 200 µg/mL.

With `CCC(=NOC)C(C)=NOc1ccccc1C(=NOC)C(=O)NC` [I(2).19] as the molecule, how does the minimal effective concentration read?
The minimal effective concentration was no more than 200 µg/mL.

Which minimal effective concentration does the source give for `CCC(=NOC)C(C)=NOc1ccccc1C(=COC)C(=O)OC` [I(2).20] here?
Its minimal effective concentration is no more than 200 µg/mL.

`CCC(=NOC)C(C)=NOc1ccccc1C(=NOC)C(=O)OC` [I(2).21] was tested. Which minimal effective concentration did it give?
Its minimal effective concentration is no more than 200 µg/mL.

From patent US5994359A, “Imino oxyphenyl acetic acid derivatives, methods and intermediates for their preparation and use thereof” (BASF Aktiengesellschaft, priority 1995, dated 1999)
